Key:
[1] = test system: NK, B, CD8+, and CD4+ lymphocytes; details: cited from earlier work
[2] = test system: M. tuberculosis (Erdman); assay: Intravenous inoculation model of tuberculosis: survival of infected BALB/c mice treated with α-galactosylceramide; assay type: in vivo
[3] = test system: NKT cells; details: specificity for the α-linkage; cited from earlier work

Row | Molecule | time to activation of NK, B, CD8+ and CD4+ lymphocytes (induction of CD69, CD80, CD86) ([1]; administration to mice in vivo) [h] | time to detectable increase in serum IFN-γ ([1]; following in vivo treatment of mice) [h] | activation of the immune system ([1]; mice that lack CD1d (CD1d −/−) or lack NKT cells (Jα281−/−)) | survival compared to the control group ([2]; BALB/c mice, 5×10^5 cfu IV, 2 ug IP on days 1, 5 and 9, nine mice per group) | mean survival time (MST) ([2]; BALB/c mice, 5×10^5 cfu IV, 2 ug IP on days 1, 5 and 9 after infection, vehicle MST 60 days, p<0.0001 by log-rank test) [days] | bacteriological cure ([2]; preliminary experiments, all of the infected mice died despite treatment) | activation of NKT cells [3]
1 | CCCCCCCCCCCCCCCCCCCCCCCCCC(=O)N[C@@H](CO[C@H]1O[C@H](CO)[C@H](O)[C@H](O)[C@H]1O)[C@H](O)[C@H](O)CCCCCCCCCCCCCC [α-galactosylceramide] | 3 to 24 | ≤ 18 | does not occur | increased survival | 91 | did not result in a bacteriological cure | 
2 | β-galactosylceramide |  |  |  |  |  |  | does not activate NKT cells
